The supplement of paper PMC11451515

Tests used:
SEM cells [1] = assay: cell viability relative to DMSO control; higher = less cytotoxic; conditions: 48 h
Outline: (§1)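 NOMO1, SEM and P12-Ichikawa leukemia cells spent at least four passages adapting to each medium before use. They were seeded at 500 cells/well (NOMO1, SEM) or 1000 cells/well (P12-Ichikawa) in 5 μl in 1536-well plates and pin-dosed with library compounds in DMSO at 11 threefold steps from 47 μM down to 0.79 nM. After 48 h at 37°C, CellTiter-Glo One luminescence was read. Viability is reported as a percentage of the DMSO wells on each plate, with cell-free wells as background.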

P12-Ichikawa [2] = assay: AUC of viability dose-response curve (% viability x log10 dose units); higher = less sensitive; conditions: 48 h
Outline: (§2)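 Viability of medium-adapted leukemia cells was measured by CellTiter-Glo One luminescence after 48 h at 37°C with library compounds in DMSO. Doses were 11 threefold steps from 47 μM to 0.79 nM, in 1536-well plates at 500 or 1000 cells/well. Signals were normalised per plate to DMSO and cell-free wells and fitted with a four-parameter log-logistic model on log10 dose. Area under the curve was integrated by trapezoidal rule, with curves exceeding full viability scaled and failed quality-control curves removed.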

NOMO1 = assay: as above; conditions: 48 h
Outline: as §2

SEM cells [3] = assay: as above; conditions: 48 h
Outline: as §2

P12-Ichikawa [4] = assay: cell viability relative to DMSO control; higher = less cytotoxic; conditions: HPLM + 10% dialyzed FBS, 48 h
Outline: as §1

Nc1nc(F)nc2c1ncn2[C@@H]1O[C@H](CO)[C@@H](O)[C@H]1O
SEM cells [1], RPMI 5 mM glucose + 10% FBS
Conditions	cell viability [%]
0.000781 µM	114
0.00234 µM	119
0.00702 µM	125
0.0211 µM	141
0.0632 µM	115
0.19 µM	13.2
0.569 µM	10.9
1.71 µM	7.49
5.12 µM	6.64
15.4 µM	6.09
46.1 µM	6.22

AUC of viability dose-response curve
Conditions	NOMO1	P12-Ichikawa [2]	SEM cells [3]
HPLM + 10% dialyzed FBS	283	293	228
RPMI 5 mM glucose + 10% FBS	291	293	229
RPMI 5 mM glucose + 10% dialyzed FBS	279	282	217

O=C(O)C1CCCN(CCC=C(c2ccccc2)c2ccccc2)C1 (stereo not given)
AUC of viability dose-response curve
Conditions	NOMO1	P12-Ichikawa [2]	SEM cells [3]
HPLM + 10% dialyzed FBS	425	469	463
RPMI 5 mM glucose + 10% FBS	453	459	462
RPMI 5 mM glucose + 10% dialyzed FBS	465	474	464

CCOC(=O)[C@H](CCc1ccccc1)N[C@@H](C)C(=O)N1[C@H](C(=O)O)C[C@@H]2CCC[C@@H]21
Conditions	AUC of viability dose-response curve	cell viability [%]
NOMO1, HPLM + 10% dialyzed FBS	443	–
NOMO1, RPMI 5 mM glucose + 10% FBS	449	–
NOMO1, RPMI 5 mM glucose + 10% dialyzed FBS	444	–
P12-Ichikawa [2], HPLM + 10% dialyzed FBS	451	–
P12-Ichikawa [2], RPMI 5 mM glucose + 10% FBS	451	–
P12-Ichikawa [2], RPMI 5 mM glucose + 10% dialyzed FBS	450	–
P12-Ichikawa [4], 0.000781 µM	–	117
P12-Ichikawa [4], 0.00234 µM	–	124
P12-Ichikawa [4], 0.00702 µM	–	127
P12-Ichikawa [4], 0.0211 µM	–	124
P12-Ichikawa [4], 0.0632 µM	–	126
P12-Ichikawa [4], 0.19 µM	–	128
P12-Ichikawa [4], 0.569 µM	–	123
P12-Ichikawa [4], 1.71 µM	–	126
P12-Ichikawa [4], 5.12 µM	–	122
P12-Ichikawa [4], 15.4 µM	–	115
P12-Ichikawa [4], 46.1 µM	–	7.37
SEM cells [3], HPLM + 10% dialyzed FBS	450	–
SEM cells [3], RPMI 5 mM glucose + 10% FBS	440	–
SEM cells [3], RPMI 5 mM glucose + 10% dialyzed FBS	451	–

SEM cells [1], RPMI 5 mM glucose + 10% FBS
Conditions	cell viability [%]
0.000781 µM	110
0.00234 µM	116
0.00702 µM	117
0.0211 µM	143
0.0632 µM	147
0.19 µM	127
0.569 µM	135
1.71 µM	113
5.12 µM	121
15.4 µM	89
46.1 µM	7.67

CCCCC[C@H](O)/C=C/[C@H]1[C@H](O)CC(=O)[C@@H]1C/C=C\CCCC(=O)O
AUC of viability dose-response curve
Conditions	NOMO1	P12-Ichikawa [2]	SEM cells [3]
HPLM + 10% dialyzed FBS	449	460	456
RPMI 5 mM glucose + 10% FBS	453	457	458
RPMI 5 mM glucose + 10% dialyzed FBS	440	457	460

Nc1cc(c(cc1S(=O)(N)=O)S(N)(=O)=O)C(/Cl)=C(/Cl)Cl
SEM cells [1], HPLM + 10% dialyzed FBS
Conditions	cell viability [%]
0.000781 µM	110
0.00234 µM	124
0.00702 µM	140
0.0211 µM	124
0.0632 µM	128
0.19 µM	120
0.569 µM	132
1.71 µM	126
5.12 µM	86.4
15.4 µM	10.4
46.1 µM	9.94

AUC of viability dose-response curve
Conditions	NOMO1	P12-Ichikawa [2]	SEM cells [3]
HPLM + 10% dialyzed FBS	344	335	396
RPMI 5 mM glucose + 10% FBS	399	396	363
RPMI 5 mM glucose + 10% dialyzed FBS	406	390	379

CC1=C(CC/C(C)=C/CCC2=CCC(C3=CC(=O)OC3O)OC2O)C(C)(C)CCC1 (stereo not given)
cell viability [%], SEM cells [1]
Conditions	HPLM + 10% dialyzed FBS	RPMI 5 mM glucose + 10% dialyzed FBS
0.000781 µM	115	121
0.00234 µM	129	124
0.00702 µM	114	119
0.0211 µM	129	112
0.0632 µM	46.6	27.5
0.19 µM	125	132
0.569 µM	138	148
1.71 µM	127	115
5.12 µM	71.4	54
15.4 µM	107	140
46.1 µM	106	129

AUC of viability dose-response curve
Conditions	HPLM + 10% dialyzed FBS	RPMI 5 mM glucose + 10% FBS	RPMI 5 mM glucose + 10% dialyzed FBS
NOMO1	434	469	466
P12-Ichikawa [2]	457	434	443

C[C@@H](N)c1ccc(C(=O)Nc2ccnc3[nH]ccc23)cc1
cell viability [%], SEM cells [1]
Conditions	HPLM + 10% dialyzed FBS	RPMI 5 mM glucose + 10% FBS
0.000781 µM	99.4	115
0.00234 µM	115	135
0.00702 µM	122	124
0.0211 µM	121	155
0.0632 µM	121	145
0.19 µM	144	140
0.569 µM	136	130
1.71 µM	118	139
5.12 µM	118	114
15.4 µM	105	86.7
46.1 µM	40.7	52.5

AUC of viability dose-response curve
Conditions	NOMO1	P12-Ichikawa [2]	SEM cells [3]
HPLM + 10% dialyzed FBS	462	471	454
RPMI 5 mM glucose + 10% FBS	455	461	437
RPMI 5 mM glucose + 10% dialyzed FBS	455	466	455

Cl.Nc1ccn([C@@H]2O[C@H](CO)[C@@H](O)C2(F)F)c(=O)n1
AUC of viability dose-response curve
Conditions	NOMO1	P12-Ichikawa [2]	SEM cells [3]
HPLM + 10% dialyzed FBS	263	230	179
RPMI 5 mM glucose + 10% FBS	243	223	175
RPMI 5 mM glucose + 10% dialyzed FBS	248	212	141

O=C1CC[C@@]2(O)[C@H]3Cc4ccc(O)c5c4[C@@]2(CCN3CC2CC2)[C@H]1O5
AUC of viability dose-response curve
Conditions	NOMO1	P12-Ichikawa [2]	SEM cells [3]
HPLM + 10% dialyzed FBS	419	459	469
RPMI 5 mM glucose + 10% FBS	411	474	451
RPMI 5 mM glucose + 10% dialyzed FBS	434	469	463

CC1COC2=C3N1\C=C(C(O)=O)/C(=O)C3=CC(=C2N4CCN(C)CC4)F (stereo not given)
cell viability [%], SEM cells [1]
Conditions	HPLM + 10% dialyzed FBS	RPMI 5 mM glucose + 10% FBS
0.000781 µM	119	111
0.00234 µM	128	124
0.00702 µM	122	125
0.0211 µM	122	136
0.0632 µM	121	142
0.19 µM	125	118
0.569 µM	128	117
1.71 µM	119	122
5.12 µM	118	117
15.4 µM	120	106
46.1 µM	119	115

AUC of viability dose-response curve
Conditions	NOMO1	P12-Ichikawa [2]	SEM cells [3]
HPLM + 10% dialyzed FBS	459	463	470
RPMI 5 mM glucose + 10% FBS	443	452	453
RPMI 5 mM glucose + 10% dialyzed FBS	446	438	463

CN1CC(=O)\N=C1\NC(=O)NC2=CC(=CC=C2)Cl
AUC of viability dose-response curve
Conditions	NOMO1	P12-Ichikawa [2]	SEM cells [3]
HPLM + 10% dialyzed FBS	452	442	448
RPMI 5 mM glucose + 10% FBS	453	459	471
RPMI 5 mM glucose + 10% dialyzed FBS	468	463	457

CC(=O)Nc1sc2c(c1-c1nc3ccccc3s1)CNC2
AUC of viability dose-response curve
Conditions	NOMO1	P12-Ichikawa [2]	SEM cells [3]
HPLM + 10% dialyzed FBS	386	463	437
RPMI 5 mM glucose + 10% FBS	462	452	443
RPMI 5 mM glucose + 10% dialyzed FBS	384	453	439
